The test system of one assay is recombinant NL4-3 virus (Renilla luciferase in nef, Gag P373S; NLRluc) in MT-2 cells. Kind of assay: whole plant or invertebrate. Format: cell-based, HIV. The settings on record: Renilla, NL43, luciferase activity in cells infected for 4-5 days with NLRluc recombinants, serial dilutions of inhibitor; class symbols (key in Table 1); read-out: EC50. An outline of the steps:
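Virus from 293T transfection, titered in MT-2 by luciferase. MT-2 (RPMI, 10% HI-FBS) infected ± inhibitor serial dilutions, 4-5 d. Readout: Dual Luciferase premix (lysis:reagent:Stop & Glo 2:1:1), immediate luminescence.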
For `C=C(C)[C@@H]1CC[C@]2(NC(=O)N3CCN(CCO)CC3)CC[C@]3(C)[C@H](CC[C@@H]4[C@@]5(C)CC=C(c6ccc(C(=O)O)cc6)C(C)(C)[C@@H]5CC[C@]43C)[C@@H]12` [Example 38, 4-((1R,3aS,5aR,5bR,7aR,11aS,11bR,13aR,13bR)-3a-(4-(2-hydroxyethyl)piperazine-1-carboxamido)-5a,5b,8,8,11a-pentamethyl-1-(prop-1-en-2-yl)-2,3,3a,4,5,5a,5b,6,7,7a,8,11,11a,11b,12,13,13a,13b-octadecahydro-1H-cyclopenta[a]chrysen-9-yl)benzoic acid], the concentration giving a half-maximal response (EC50) was < 100 nM.

For `C=C(C)[C@@H]1CC[C@]2(NC(=O)N3CCN(CCN(C)C)CC3)CC[C@]3(C)[C@H](CC[C@@H]4[C@@]5(C)CC=C(c6ccc(C(=O)O)cc6)C(C)(C)[C@@H]5CC[C@]43C)[C@@H]12` [Example 39, 4-((1R,3aS,5aR,5bR,7aR,11aS,11bR,13aR,13bR)-3a-(4-(2-(dimethylamino)ethyl)piperazine-1-carboxamido)-5a,5b,8,8,11a-pentamethyl-1-(prop-1-en-2-yl)-2,3,3a,4,5,5a,5b,6,7,7a,8,11,11a,11b,12,13,13a,13b-octadecahydro-1H-cyclopenta[a]chrysen-9-yl)benzoic acid], the EC50 is < 100 nM.

With `C=C(C)[C@@H]1CC[C@]2(NC(=O)N3CCN(C4CCN(C)CC4)CC3)CC[C@]3(C)[C@H](CC[C@@H]4[C@@]5(C)CC=C(c6ccc(C(=O)O)cc6)C(C)(C)[C@@H]5CC[C@]43C)[C@@H]12` [Example 40, 4-((1R,3aS,5aR,5bR,7aR,11aS,11bR,13aR,13bR)-5a,5b,8,8,11a-pentamethyl-3a-(4-(1-methylpiperidin-4-yl)piperazine-1-carboxamido)-1-(prop-1-en-2-yl)-2,3,3a,4,5,5a,5b,6,7,7a,8,11,11a,11b,12,13,13a,13b-octadecahydro-1H-cyclopenta[a]chrysen-9-yl)benzoic acid], the EC50 is < 100 nM.

Take `C=C(C)[C@@H]1CC[C@]2(NC(=O)N3CCN(C(C)=O)CC3)CC[C@]3(C)[C@H](CC[C@@H]4[C@@]5(C)CC=C(c6ccc(C(=O)O)cc6)C(C)(C)[C@@H]5CC[C@]43C)[C@@H]12` [Example 41, 4-((1R,3aS,5aR,5bR,7aR,11aS,11bR,13aR,13bR)-3a-(4-acetylpiperazine-1-carboxamido)-5a,5b,8,8,11a-pentamethyl-1-(prop-1-en-2-yl)-2,3,3a,4,5,5a,5b,6,7,7a,8,11,11a,11b,12,13,13a,13b-octadecahydro-1H-cyclopenta[a]chrysen-9-yl)benzoic acid]: the EC50 was < 100 nM.

As for `C=C(C)[C@@H]1CC[C@]2(NC(=O)N3CCNC(=O)CC3)CC[C@]3(C)[C@H](CC[C@@H]4[C@@]5(C)CC=C(c6ccc(C(=O)O)cc6)C(C)(C)[C@@H]5CC[C@]43C)[C@@H]12` [Example 42, 4-((1R,3aS,5aR,5bR,7aR,11aS,11bR,13aR,13bR)-5a,5b,8,8,11a-pentamethyl-3a-(5-oxo-1,4-diazepane-1-carboxamido)-1-(prop-1-en-2-yl)-2,3,3a,4,5,5a,5b,6,7,7a,8,11,11a,11b,12,13,13a,13b-octadecahydro-1H-cyclopenta[a]chrysen-9-yl)benzoic acid], the 50% effective concentration (EC50) was < 100 nM.

Turning to `C=C(C)[C@@H]1CC[C@]2(NC(=O)N(C)CCN3CCCC3)CC[C@]3(C)[C@H](CC[C@@H]4[C@@]5(C)CC=C(c6ccc(C(=O)O)cc6)C(C)(C)[C@@H]5CC[C@]43C)[C@@H]12` [Example 44, 4-((1R,3aS,5aR,5bR,7aR,11aS,11bR,13aR,13bR)-5a,5b,8,8,11a-pentamethyl-3a-(3-methyl-3-(2-(pyrrolidin-1-yl)ethyl)ureido)-1-(prop-1-en-2-yl)-2,3,3a,4,5,5a,5b,6,7,7a,8,11,11a,11b,12,13,13a,13b-octadecahydro-1H-cyclopenta[a]chrysen-9-yl)benzoic acid], the concentration giving a half-maximal response (EC50) is < 100 nM.

As to `C=C(C)[C@@H]1CC[C@]2(NC(=O)N3CCNCC3)CC[C@]3(C)[C@H](CC[C@@H]4[C@@]5(C)CC=C(c6ccc(C(=O)O)cc6)C(C)(C)[C@@H]5CC[C@]43C)[C@@H]12` [Example 45, 4-((1R,3aS,5aR,5bR,7aR,11aS,11bR,13aR,13bR)-5a,5b,8,8,11a-pentamethyl-3a-(piperazine-1-carboxamido)-1-(prop-1-en-2-yl)-2,3,3a,4,5,5a,5b,6,7,7a,8,11,11a,11b,12,13,13a,13b-octadecahydro-1H-cyclopenta[a]chrysen-9-yl)benzoic acid], the EC50 was < 100 nM.

For `C=C(C)[C@@H]1CC[C@]2(NC(=O)N(C)CCCN(C)C)CC[C@]3(C)[C@H](CC[C@@H]4[C@@]5(C)CC=C(c6ccc(C(=O)O)cc6)C(C)(C)[C@@H]5CC[C@]43C)[C@@H]12` [Example 46, 4-((1R,3aS,5aR,5bR,7aR,11aS,11bR,13aR,13bR)-3a-(3-(3-(dimethylamino)propyl)-3-methylureido)-5a,5b,8,8,11a-pentamethyl-1-(prop-1-en-2-yl)-2,3,3a,4,5,5a,5b,6,7,7a,8,11,11a,11b,12,13,13a,13b-octadecahydro-1H-cyclopenta[a]chrysen-9-yl)benzoic acid], the EC50 was < 100 nM.

Regarding `C=C(C)[C@@H]1CC[C@]2(NC(=O)NCCNS(C)(=O)=O)CC[C@]3(C)[C@H](CC[C@@H]4[C@@]5(C)CC=C(c6ccc(C(=O)O)cc6)C(C)(C)[C@@H]5CC[C@]43C)[C@@H]12` [Example 47, 4-((1R,3aS,5aR,5bR,7aR,11aS,11bR,13aR,13bR)-5a,5b,8,8,11a-pentamethyl-3a-(3-(2-(methylsulfonamido)ethyl)ureido)-1-(prop-1-en-2-yl)-2,3,3a,4,5,5a,5b,6,7,7a,8,11,11a,11b,12,13,13a,13b-octadecahydro-1H-cyclopenta[a]chrysen-9-yl)benzoic acid], the concentration for a half-maximal effect (EC50) is < 100 nM.

For `C=C(C)[C@@H]1CC[C@]2(NC(=O)N(C)CCn3ccc4ccccc43)CC[C@]3(C)[C@H](CC[C@@H]4[C@@]5(C)CC=C(c6ccc(C(=O)O)cc6)C(C)(C)[C@@H]5CC[C@]43C)[C@@H]12` [Example 48, 4-((1R,3aS,5aR,5bR,7aR,11aS,11bR,13aR,13bR)-3a-(3-(2-(1H-indol-1-yl)ethyl)-3-methylureido)-5a,5b,8,8,11a-pentamethyl-1-(prop-1-en-2-yl)-2,3,3a,4,5,5a,5b,6,7,7a,8,11,11a,11b,12,13,13a,13b-octadecahydro-1H-cyclopenta[a]chrysen-9-yl)benzoic acid], the concentration for a half-maximal effect (EC50) is < 100 nM.

Consider `C=C(C)[C@@H]1CC[C@]2(NC(=O)NCCCN(C)S(C)(=O)=O)CC[C@]3(C)[C@H](CC[C@@H]4[C@@]5(C)CC=C(c6ccc(C(=O)O)cc6)C(C)(C)[C@@H]5CC[C@]43C)[C@@H]12` [Example 49, 4-((1R,3aS,5aR,5bR,7aR,11aS,11bR,13aR,13bR)-5a,5b,8,8,11a-pentamethyl-3a-(3-(3-(N-methylmethylsulfonamido)propyl)ureido)-1-(prop-1-en-2-yl)-2,3,3a,4,5,5a,5b,6,7,7a,8,11,11a,11b,12,13,13a,13b-octadecahydro-1H-cyclopenta[a]chrysen-9-yl)benzoic acid], for which the EC50 is < 100 nM.

`C=C(C)[C@@H]1CC[C@]2(NC(=O)NCCN(C)S(C)(=O)=O)CC[C@]3(C)[C@H](CC[C@@H]4[C@@]5(C)CC=C(c6ccc(C(=O)O)cc6)C(C)(C)[C@@H]5CC[C@]43C)[C@@H]12` [Example 50, 4-((1R,3aS,5aR,5bR,7aR,11aS,11bR,13aR,13bR)-5a,5b,8,8,11a-pentamethyl-3a-(3-(2-(N-methylmethylsulfonamido)ethyl)ureido)-1-(prop-1-en-2-yl)-2,3,3a,4,5,5a,5b,6,7,7a,8,11,11a,11b,12,13,13a,13b-octadecahydro-1H-cyclopenta[a]chrysen-9-yl)benzoic acid]: the EC50 is < 100 nM.

`C=C(C)[C@@H]1CC[C@]2(NC(=O)N3CCCN(CCO)CC3)CC[C@]3(C)[C@H](CC[C@@H]4[C@@]5(C)CC=C(c6ccc(C(=O)O)cc6)C(C)(C)[C@@H]5CC[C@]43C)[C@@H]12` [Example 51, 4-((1R,3aS,5aR,5bR,7aR,11aS,11bR,13aR,13bR)-3a-(4-(2-hydroxyethyl)-1,4-diazepane-1-carboxamido)-5a,5b,8,8,11a-pentamethyl-1-(prop-1-en-2-yl)-2,3,3a,4,5,5a,5b,6,7,7a,8,11,11a,11b,12,13,13a,13b-octadecahydro-1H-cyclopenta[a]chrysen-9-yl)benzoic acid]: the EC50 was < 100 nM.

The assay is the same for the next values; noted with them: Renilla, NL43, luciferase activity in cells infected for 4-5 days with NLRluc recombinants, serial dilutions of inhibitor; numeric values; read-out: EC50.
Turning to `C=C(C)[C@@H]1CC[C@]2(NC(=O)N3CCN(C4CCCC4)C(=O)C3)CC[C@]3(C)[C@H](CC[C@@H]4[C@@]5(C)CC=C(c6ccc(C(=O)O)cc6)C(C)(C)[C@@H]5CC[C@]43C)[C@@H]12` [Example 37, 4-((1R,3aS,5aR,5bR,7aR,11aS,11bR,13aR,13bR)-3a-(4-cyclopentyl-3-oxopiperazine-1-carboxamido)-5a,5b,8,8,11a-pentamethyl-1-(prop-1-en-2-yl)-2,3,3a,4,5,5a,5b,6,7,7a,8,11,11a,11b,12,13,13a,13b-octadecahydro-1H-cyclopenta[a]chrysen-9-yl)benzoic acid], the concentration for a half-maximal effect (EC50) turned out to be 4 nM.

Turning to `C=C(C)[C@@H]1CC[C@]2(NC(=O)N(CCN)CCC(=O)O)CC[C@]3(C)[C@H](CC[C@@H]4[C@@]5(C)CC=C(c6ccc(C(=O)O)cc6)C(C)(C)[C@@H]5CC[C@]43C)[C@@H]12` [Example 43, 4-((1R,3aS,5aR,5bR,7aR,11aS,11bR,13aR,13bR)-3a-(3-(2-aminoethyl)-3-(2-carboxyethyl)ureido)-5a,5b,8,8,11a-pentamethyl-1-(prop-1-en-2-yl)-2,3,3a,4,5,5a,5b,6,7,7a,8,11,11a,11b,12,13,13a,13b-octadecahydro-1H-cyclopenta[a]chrysen-9-yl)benzoic acid], the half-maximal effective concentration (EC50) was found to be 30 nM.

The term EC50 denotes the concentration that produces a half-maximal response.

The values are drawn from US20140343000A1 (priority 2011, published 2014).
